Nine molecules from ChEMBL document CHEMBL2390948, “Stapled peptide-based membrane fusion inhibitors of hepatitis C virus” (Bioorg Med Chem, 2013) can be followed below.

Bridge positions count the residues as written; N and C are the ends. Square brackets hold non-standard residues; d marks the D form. Peptide text beside a SMILES is read from it. R8 = C=CCCCCCC[C@@](C)(N)C(=O)O; S8 = C=CCCCCCC[C@](C)(N)C(=O)O; R5 = C=CCCC[C@@](C)(N)C(=O)O; S5 = C=CCCC[C@](C)(N)C(=O)O

One data set deals with Hepacivirus hominis. The data set is described as follows: Inhibition of HCV envelope glycoprotein E2 interaction to human cell surface protein CD81.
Data set [1] concerns Hepatitis C virus. In words: Inhibition of HCV 1b con1 envelope glycoprotein E2 interaction to cell surface protein CD81 in human Huh 7.5.1 cells after 2 days by firefly luciferase based luminescene assay. The following applies: Con1, Huh-7.5.1, 48 h. The format is organism-based, Hepacivirus hominis.
In data set [2] the test system is Hepatitis C virus. The data set is described as follows: Antiviral activity against HCV JFH-1 infected in human Huh 7.5.1 cells after 2 days by firefly luciferase reporter gene assay. The format is functional, organism-based, Hepacivirus hominis. The following applies: JFH-1, Huh-7.5.1, 48 h. For orientation: Reporter assays use an easily measured gene product as a stand-in for the process of interest.

Data set [3] is described as follows: Inhibition of HCV JFH-1 envelope glycoprotein E2 interaction to cell surface protein CD81 in human Huh 7.5.1 cells after 2 days by firefly luciferase based luminescene assay. More on the design: species or system Hepatitis C virus JFH-1.
The nature of data set [4]: Half life of the compound in presence of chymotrypsin at 20 uM by HPLC analysis. In kind it is physicochemical.
Data set [5] is described as follows: Cytotoxicity against human Huh7.5.1 cells at 1000 ug/ml after 48 hrs by WST-1 assay. In kind it is cell-based. (In general: Tetrazolium dyes change colour on reduction, which living cells bring about.)
Data set [6] deals with Hepatitis C virus. The data set is described as follows: Antiviral activity against HCV at 50 uM. The format is functional, Hepacivirus hominis.

As for `CCN(CCN(CC)C(=O)c1nc[nH]c1C(=O)N[C@@H](CC(C)C)C(=O)OCc1ccccc1)C(=O)c1nc[nH]c1C(=O)N[C@@H](CC(C)C)C(=O)OCc1ccccc1`, in the data set with Hepacivirus hominis, the INH is 38 µM.

As to `CCN(CCN(CC)C(=O)c1nc[nH]c1C(=O)N[C@H](C(=O)OCc1ccccc1)C(C)C)C(=O)c1nc[nH]c1C(=O)N[C@H](C(=O)OCc1ccccc1)C(C)C`, the INH in the data set with Hepacivirus hominis turned out to be 53 µM.

As for `CC[C@H](C)[C@H](NC(=O)[C@H](CC(N)=O)NC(=O)[C@H](CO)NC(=O)CNC(=O)[C@H](CO)NC(=O)[C@@H]1CCCN1C(C)=O)C(=O)N[C@H](C(=O)N[C@@]1(C)CCC/C=C\CCC[C@@](C)(C(=O)N[C@@H](CCC(=O)O)C(=O)N[C@@H](CC(=O)O)C(N)=O)NC(=O)[C@H](Cc2ccccc2)NC(=O)[C@H](CC(C)C)NC(=O)[C@H](CC(N)=O)NC1=O)[C@@H](C)CC` (Ac-PSGSNII[S5]NLF[S5]ED-NH2; staple (Z) 8-12), the EC50 in the data set with Hepatitis C virus [1] worked out at 280 µM; in the data set on Hepatitis C virus [2] it was 181 µM; in data set [3], 313 µM. Further, the half-life at 20 µM in data set [4] was above 3.33 h.

As to `CC[C@H](C)[C@@H]1NC(=O)[C@@](C)(NC(=O)[C@H](CC(N)=O)NC(=O)[C@H](CO)NC(=O)CNC(=O)[C@H](CO)NC(=O)[C@@H]2CCCN2C(C)=O)CCC/C=C\CCC[C@@](C)(C(=O)N[C@@H](Cc2ccccc2)C(=O)N[C@@H](CCCCN)C(=O)N[C@@H](CCC(=O)O)C(=O)N[C@@H](CC(=O)O)C(N)=O)NC(=O)[C@H](CC(N)=O)NC(=O)[C@H](CO)NC1=O` (Ac-PSGSN[S5]ISN[S5]FKED-NH2; staple (Z) 6-10), the results for the half-maximal effective concentration (EC50) (in the data set with Hepatitis C virus [1]; with Hepatitis C virus [2]; in data set [3]) were 316 µM, 240 µM and 200 µM, respectively. For the same molecule, in data set [4], the half-life at 20 µM was above 3.33 h.

In the case of `CC[C@H](C)[C@@H]1NC(=O)[C@H]([C@@H](C)CC)NC(=O)[C@@](C)(NC(=O)[C@H](CO)NC(=O)CNC(=O)[C@H](CO)NC(=O)[C@@H]2CCCN2C(C)=O)CCCCCC/C=C/CCC[C@@](C)(C(=O)N[C@@H](CCC(=O)O)C(=O)N[C@@H](CC(=O)O)C(N)=O)NC(=O)[C@H](Cc2ccccc2)NC(=O)[C@H](CC(C)C)NC(=O)[C@H](CC(N)=O)NC(=O)[C@H](CO)NC1=O` (Ac-PSGS[S8]IISNLF[S5]ED-NH2; staple (E) 5-12), the concentration giving a half-maximal response (EC50) was determined as 310 µM in the data set with Hepatitis C virus [1], 357 µM in the data set with Hepatitis C virus [2] and 78 µM in data set [3]. The half-life at 20 µM in data set [4] was above 3.33 h.

With `CC[C@H](C)[C@@H]1NC(=O)[C@H](CC(N)=O)NC(=O)[C@@](C)(NC(=O)CNC(=O)[C@H](CO)NC(=O)[C@@H]2CCCN2C(C)=O)CCC/C=C\CCC[C@@](C)(C(=O)N[C@@H](CC(N)=O)C(=O)N[C@@H](CC(C)C)C(=O)N[C@@H](Cc2ccccc2)C(=O)N[C@@H](CCCCN)C(=O)N[C@@H](CCC(=O)O)C(=O)N[C@@H](CC(=O)O)C(N)=O)NC(=O)[C@H]([C@@H](C)CC)NC1=O` (Ac-PSG[S5]NII[S5]NLFKED-NH2; staple (Z) 4-8), the EC50 in the data set on Hepatitis C virus [1] worked out at 164 µM; in the data set with Hepatitis C virus [2] it was 40 µM; in data set [3] it was 21 µM. The half-life at 20 µM in data set [4] was above 3.33 h.

On to `CC[C@H](C)[C@@H]1NC(=O)[C@H](CC(N)=O)NC(=O)[C@H](CO)NC(=O)[C@](C)(NC(=O)[C@H](CO)NC(=O)[C@@H]2CCCN2C(C)=O)CCCCCC/C=C\CCC[C@](C)(C(=O)N[C@@H](Cc2ccccc2)C(=O)N[C@@H](CCCCN)C(=O)N[C@@H](CCC(=O)O)C(=O)N[C@@H](CC(=O)O)C(N)=O)NC(=O)[C@H](CC(N)=O)NC(=O)[C@H](CO)NC(=O)[C@H]([C@@H](C)CC)NC1=O` (Ac-PS[R8]SNIISN[R5]FKED-NH2; staple (Z) 3-10), for which the results for the EC50 (in the data set with Hepatitis C virus [1]; in the data set on Hepatitis C virus [2]; in data set [3]) were 35 µM, 39 µM and 17 µM, respectively. Further, the Activity entry in data set [5] is “Non-toxic”. Also, the half-life at 20 µM in data set [4] was above 3.33 h.

Consider `O=C(OCc1ccccc1)c1ccccc1O` [BENZYL SALICYLATE], for which the inhibition at 50 µM in the data set with Hepatitis C virus [6] came out at 25%.

Ac-PSGSNIISNLFKED-NH2: the EC50 with Hepatitis C virus [1] stood at 320 µM; in the data set with Hepatitis C virus [2], 244 µM; in data set [3], 320 µM. For the same molecule, the Activity result in data set [5] is “Non-toxic”. The half-life at 20 µM in data set [4] was determined as 0.167 h.

As usually defined, the EC50 is the concentration that produces a half-maximal response. Broadly, the half-life is the time in which the quantity being followed falls by half. What is called inhibition is the share of the control response that was lost under treatment. Low readings indicate little suppression, high ones strong suppression.
